# Experimental data as given in patent US20250040548A1, “Herbicidal compositions comprising saflufenacil” (BASF SF, priority 2023, published 2025).
# Columns and labels:
# ELEIN [1] = test: Post-emergence application in field trials (Examples 2 and 3); type: in vivo, Eleusine indica
# Protocol: (§1) In the examples below, using the method of S. R. Colby (1967) “Calculating synergistic and antagonistic responses of herbicide combinations”, Weeds 15, p. 22ff., the value E, which is expected if the activity of the individual active compounds is only additive, was calculated.
# (§2) [formula] • where • X=percent activity using active herbicide A at an application rate a; • Y=percent activity using active saflufenacil at an application rate b; • E=expected activity (in %) by A+B at application rates a+b.
# (§3) If the value found experimentally is higher than the value E calculated according to Colby, a synergistic effect is present.
# (§4) On field test sites, natural weed infestation or seeded weeds were treated post-emergence of the weeds.
# (§5) For the post emergence treatment, the weedy plants were treated as indicated below. The herbicidal compositions were, together with the adjuvant(s) as indicated, suspended or emulsified in water (200 l/ha unless indicated otherwise) as distribution medium and sprayed with commercial flat fan nozzles.
# (§6) In the following experiments, the herbicidal activity for the individual herbicidal compositions (solo and mixture applications) was assessed the indicated days after treatment (DAT). The assessments for the damage on undesired weeds caused by the composition was carried out using a scale from 0 to 100%, compared to the untreated control plants. Here, 0 means no damage and 100 means complete destruction of the plants.
# as §5, with “I/ha” for “l/ha”
# CYPES = test: as above; type: in vivo, Cyperus esculentus; conditions: A-1 12.5 g ai/ha, 21 DAT, height 15-23 cm, 140 l/ha water, 1% MSO + 2.5% ammoniumsulfate
# Protocol: as §1, §2, §3, §4, §5
# as §6, with “Here, 0 means no damage and 100 means complete destruction of the plants.” left out
# SETVI = test: as above; type: in vivo, Setaria viridis
# Protocol: as §1, §2, §3, §4, §5, §6
# as §5, with “I/ha” for “l/ha”
# KCHSC = test: Post-emergence application in greenhouse trials; type: in vivo, Kochia scoparia; conditions: growth stage 33, 1% MSO
# Protocol: as §1, §2, §3
# (§7) The culture containers used were plastic pots containing loamy sand with approximately 3.0% of humus as substrate. The seeds of the test plants were sown separately for each species.
# (§8) For the post-emergence treatment, the test plants were grown to a plant height of from 3 to 15 cm, depending on the plant habit, and only then treated with the active compounds which had been suspended or emulsified in water. To this end, the test plants were either sown directly, and grown in the same containers, or they were first grown separately as seedlings and transplanted into the test containers a few days prior to treatment.
# (§9) Depending on the species, the plants were kept at 10-25° C. and 20-35° C., respectively.
# (§10) The test period extended over 2 to 4 weeks. During this time, the plants were tended and their response to the individual treatments was evaluated.
# (§11) Evaluation was carried out using a scale from 0 to 100. 100 means no emergence of the plants, or complete destruction of at least the above-ground parts, and 0 means no damage or normal course of growth. A good herbicidal activity is given at values of at least 70, and very good herbicidal activity is given at values of at least 85.
# (§12) Unless indicated otherwise, herbicide A and saflufenacil were formulated (50 g/I) and applied with addition of 1% MSO (methylated seed oil) as adjuvant. In the greenhouse trials, the solvent used was water (200 I/ha).
# AVEFA = test: Post-emergence application in field trials (Examples 2 and 3); type: in vivo, Avena fatua; conditions: 1% v/v MSO
# Protocol: as §1, §2, §3, §4, §5, §6
# as §5, with “I/ha” for “l/ha”
# ECHCG [2] = test: Post-emergence application in greenhouse trials; type: in vivo, Echinocloa crus-galli; conditions: A-1 1.56 g ai/ha, growth stage 13, saflufenacil as commercial 342 g/l SC formulation
# Protocol: as §1, §2, §3, §7, §8, §9, §10, §11, §12
# ELEIN [3] = test: Post-emergence application in greenhouse trials; type: in vivo, Eleusine indica; conditions: A-1 3.12 g ai/ha, 21 DAT, growth stage 21, saflufenacil as commercial 342 g/l SC formulation
# Protocol: as §1, §2, §3, §7
# as §8, with “treatment. […]” for “treatment.”
# (§13) The test period extended over 2 to 4 weeks. During this time, the plants were tended and their response to the individual treatments was evaluated. […]
# ERICA = test: Post-emergence application in field trials (Examples 2 and 3); type: in vivo, Erigeron canadensis; conditions: 21 DAT
# Protocol: as §1, §2, §3, §4, §5, §6
# as §5, with “I/ha” for “l/ha”
# CHEAL = test: Post-emergence application in greenhouse trials; type: in vivo, Chenopodium album; conditions: A-1 3.12 g ai/ha, 21 DAT, growth stage 51, saflufenacil as commercial 342 g/l SC formulation
# Protocol: as §1, §2, §3, §7
# as §8, with “treatment. […]” for “treatment.”
# as §13
# COMBE = test: Post-emergence application in field trials (Examples 2 and 3); type: in vivo, Commelina benghalensis; conditions: A-1 50 g ai/ha, 21 DAT, growth stage 11-14, height 2-10 cm, 0.5% MSO
# Protocol: as §1, §2, §3, §4, §5
# as §6, with “Here, 0 means no damage and 100 means complete destruction of the plants.” left out
# ECHCG [4] = test: as above; type: in vivo, Echinocloa crus-galli
# Protocol: as §1, §2, §3, §4, §5, §6
# as §5, with “I/ha” for “l/ha”
# BIDPI = test: as above; type: in vivo, Bidens pilosa; conditions: A-1 25 g ai/ha, 21 DAT, growth stage 12-16, height 5-10 cm, 0.5% MSO
# Protocol: as §1, §2, §3, §4, §5
# as §6, with “Here, 0 means no damage and 100 means complete destruction of the plants.” left out
# DIGSA = test: as above; type: in vivo, Digitaria sanguinales; conditions: A-1 12.5 g ai/ha
# Protocol: as §1, §2, §3, §4, §5, §6
# as §5, with “I/ha” for “l/ha”
structure (smiles),measurement,setting,value
"CCOC(=O)COc1ccccc1Oc1nc(-n2c(=O)cc(C(F)(F)F)n(C)c2=O)c(F)cc1Cl [A-1, ethyl 2-[2-[[3-chloro-5-fluoro-6-[3-methyl-2,6-dioxo-4-(trifluoromethyl)pyrimidin-1-yl]-2-pyridyl]oxy]phenoxy]acetate]",% Herbicidal activity,"ELEIN [1]; A-1 12.5 g ai/ha, 21 DAT, height 1-15 cm, 140 l/ha water, 1% MSO + 2.5% ammoniumsulfate",49%
same,% Herbicidal activity,"ELEIN [1]; A-1 12.5 g ai/ha, 21 DAT, height 7-10 cm, 1% v/v MSO and 1% w/v ammoniumsulfate",18%
same,% Herbicidal activity,"ELEIN [1]; A-1 12.5 g ai/ha, 21 DAT, height 15-20 cm, 1% v/v MSO and 1% w/v ammoniumsulfate",27%
same,% Herbicidal activity,"ELEIN [1]; A-1 25 g ai/ha, 19 DAT, growth stage 24, 0.5% MSO",68%
same,% Herbicidal activity,"ELEIN [1]; A-1 25 g ai/ha, 21 DAT, height 7-10 cm, 1% v/v MSO and 1% w/v ammoniumsulfate",78%
same,% Herbicidal activity,"ELEIN [1]; A-1 25 g ai/ha, 21 DAT, height 15-20 cm, 1% v/v MSO and 1% w/v ammoniumsulfate",55%
same,% Herbicidal activity,"ELEIN [1]; A-1 50 g ai/ha, 19 DAT, growth stage 24, 0.5% MSO",73%
same,% Herbicidal activity,CYPES,47%
same,% Herbicidal activity,"SETVI; A-1 12.5 g ai/ha, 19 DAT, growth stage 13-19, height 2.5-10 cm, field, 1% v/v MSO and 1% w/v ammoniumsulfate",87%
same,% Herbicidal activity,"SETVI; A-1 25 g ai/ha, 19 DAT, growth stage 13-19, height 2.5-10 cm, field, 1% v/v MSO and 1% w/v ammoniumsulfate",96%
same,% Herbicidal activity,"SETVI; SETVI, height 50-61 cm, A-1 solo 25 g ai/ha, 42 DAT, 1% v/v MSO and 2.5% AMSOL ®",57%
same,% Herbicidal activity,"KCHSC; A-1 0.2 g ai/ha, 6 DAT",15%
same,% Herbicidal activity,"KCHSC; A-1 0.2 g ai/ha, 20 DAT",15%
same,% Herbicidal activity,"KCHSC; A-1 0.3 g ai/ha, 6 DAT",55%
same,% Herbicidal activity,"KCHSC; A-1 0.4 g ai/ha, 6 DAT",55%
same,% Herbicidal activity,"KCHSC; A-1 0.4 g ai/ha, 20 DAT",55%
same,% Herbicidal activity,"KCHSC; A-1 0.9 g ai/ha, 6 DAT",90%
same,% Herbicidal activity,"KCHSC; A-1 1 g ai/ha, 6 DAT",95%
same,% Herbicidal activity,"AVEFA; A-1 18 g ai/ha, 28 DAT, growth stage 14-15, height 9-16 cm, field, 100 l/ha water",83%
same,% Herbicidal activity,"AVEFA; A-1 18 g ai/ha, 29 DAT, growth stage 14-23, height 24-40 cm, field, 100 l/ha water",80%
same,% Herbicidal activity,"AVEFA; AVEFA, growth stage 15-16, height 25-38 cm, A-1 solo 12.5 g ai/ha, 16 DAT",90%
same,% Herbicidal activity,"AVEFA; AVEFA, growth stage 15-16, height 25-38 cm, A-1 solo 25 g ai/ha, 16 DAT",95%
same,% Herbicidal activity,"AVEFA; AVEFA, growth stage 15-16, height 25-38 cm, A-1 solo 50 g ai/ha, 16 DAT",98%
same,% Herbicidal activity,ECHCG [2]; 7 DAT,70%
same,% Herbicidal activity,ECHCG [2]; 21 DAT,55%
same,% Herbicidal activity,ELEIN [3],80%
same,% Herbicidal activity,"ERICA; A-1 6.25 g ai/ha, height 12.5-25 cm, field, 140 l/ha water, 1% MSO + 2.5% ammoniumsulfate",7%
same,% Herbicidal activity,"ERICA; A-1 12.5 g ai/ha, height 12.5-25 cm, field, 140 l/ha water, 1% MSO + 2.5% ammoniumsulfate",17%
same,% Herbicidal activity,"ERICA; ERICA, height 5-10 cm, A-1 solo 25 g ai/ha, 1% v/v MSO and 1% AMS (ammonium sulfate)",60%
same,% Herbicidal activity,CHEAL,65%
same,% Herbicidal activity,COMBE,94%
same,% Herbicidal activity,"ECHCG [4]; A-1 12.5 g ai/ha, 14 DAT, growth stage 14-19, height 2-8 cm, field, 140 l/ha water, 1% MSO + 2.5% ammoniumsulfate",75%
same,% Herbicidal activity,"ECHCG [4]; A-1 25 g ai/ha, 21 DAT, height 12.5-30 cm, field, 1% v/v MSO and 1% w/v ammoniumsulfate",58%
same,% Herbicidal activity,"ECHCG [4]; ECHCG, growth stage 21-23, height 43-44 cm, A-1 solo 30 g ai/ha, 21 DAT, 1% Dash ® HC",52%
same,% Herbicidal activity,BIDPI,94%
same,% Herbicidal activity,"DIGSA; 19 DAT, growth stage 13-19, height 2.5-7.5 cm, 1% v/v MSO and 1% w/v ammoniumsulfate",87%
same,% Herbicidal activity,"DIGSA; 21 DAT, height 3-12 cm, 140 l/ha water, 1% MSO + 2.5% ammoniumsulfate",50%
